Laboratory results reported in patent EP4371976B1, “IONIZABLE LIPIDS AND LIPID NANOPARTICLES CONTAINING THEREOF” (Certest Biotec, S.L., priority 2022, dated 2024).

Columns and labels:
[1] = Size distribution, polydispersity and Z-potential of LNPs by dynamic light scattering (Malvern Zetasizer); format: physicochemical; settings: LNPs, standard formulation 50:10:38.5:1.5; DLS
Description: The LNP solution was then adjusted to a final concentration of mRNA of 100 µg/ml. Size distribution, polydispersity and Z-potential were measured by dynamic light scattering (DLS) using Malvern Zetasizer Advance Lab Blue Label. RNA encapsulation was assessed by Quant-IT® Ribogreen following the manufacturer's instructions.

mice = test: LNP stability over time: in vivo transfection (total flux) in mice, fresh versus stored at 4 °C; settings: LNP 50:10:38.5:1.5
Description: Two LNPs comprising: ionizable lipid (Formula I):non-cationic lipid:sterol: PEG-modified lipid
in the ratios 50:10:38.5:1.5 were tested in order to determine their stability. Formulation A comprising VC-LC-0163 as the ionizable lipid was administered to mice and transfection efficiency measured with a fresh preparation in a first experiment, and with a preparation that had been stored for 83 days at T = 4 °C.
Formulation B comprising VC-LC-0263 as the ionizable lipid was administered to mice and transfection efficiency measured with a fresh preparation in a first experiment, and with a preparation that had been stored for 61 days at T = 4 °C.

[2] = RNA encapsulation efficiency of LNPs by Quant-IT Ribogreen; format: physicochemical; settings: for Encaps. efficiency (%): LNPs with luciferase mRNA, ionizable lipid:non-cationic lipid:sterol:PEG-modified lipid 50:10:38.5:1.5; for Encaps. efficiency: Table 8, LNP 50:10:38.5:1.5, luciferase mRNA
Summary of the method: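 LNPs formed by mixing aqueous mRNA into ethanol lipid solution, diluted 1:1 in Tris, dialysed overnight against Tris with 15% sucrose. Encapsulated mRNA measured by Ribogreen fluorescence per kit protocol; LNPs adjusted to 100 µg/ml final mRNA.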

HEK293T cells = settings: reported by Molla et al., cited from earlier work
Female BALB/c mice = test: Firefly luciferase expression (total flux, IVIS imaging) in mice after injection of mRNA-loaded LNPs; format: in vivo; settings: for Total Flux: LNP 50:10:38.5:1.5
Description: For in vivo administration, mRNA comprising in the 5' to 3' direction a sequence encoding for luciferase of SEQ ID NO:1, was encapsulated into LNPs following the procedure described in Hassett, K. J. et al., "Optimization of Lipid Nanoparticles for Intramuscular Administration of mRNA Vaccines", 2019, Mol. Ther. Nucleic Acid, vol. 15, pp. 1-11. Briefly, the purified mRNAs were first diluted in sodium citrate buffer at pH=4 at a final concentration of 266 µg/ml. Separately, a mixture of the ionizable lipid of the invention:DSPC (Merk 850365P):cholesterol (Sigma C3045):DMG-PEG2000 (Cayman 33945-1) were dissolved into ethanol at the respective molar percentages of 50:10:38.5:1.5, and with a lipid-nitrogen-to-phosphate ratio (N:P) ratio of 5,5:1.
The mRNA aqueous solution was then carefully added to the ethanol solution, and the resulted solution was homogenized by pipetting up and down for 4-5 times. The resulting LNPs were immediately diluted 1:1 with Tris buffer and dialyzed overnight against Tris buffer containing 15% sucrose. The resulting LNP solution was then collected, and the encapsulated mRNA was assessed by Quant-IT® Ribogreen (Invitrogen R11490) following the manufacturer's instructions.
Female BALB/c mice (Charles River Laboratories), 8-10-week-old, weighting 18-23 g, were acclimatized to new conditions upon arrival to experimental facilities for 3-7 days. Housing conditions were room temperature 20-24 °C, humidity 50-70 %, and light intensity 60 lux with a light-dark cycle of 12 hours.
For Firefly Luciferase activity measurement in mice, LNPs produced as indicated above (ionizable lipid:helper lipid: sterol:PEG-modified lipid → 50:10:38.5:1.5) and containing 5 µg of the indicated mRNA in 50 µl final volume, were injected intramuscularly.
From 4 to 72 hours after RNA-LPN inoculation mice were anaesthetized by inhalation with 4% of isoflurane using a vaporizer. The maintenance of the anaesthesia was performed at 1.5% of isoflurane. Then, D-luciferin (Quimigen, 12507) was injected intraperitoneally at 150 mg/kg, normally ~200 µL of the stock at 15 mg/mL in PBS for a 20 g mouse. Luciferase images were acquired 10 minutes after luciferin inoculation using the IVIS Lumina XRMS Imaging System following manufacturer's instructions.

[3] = Apparent pKa of LNPs comprising the ionizable lipid (Table 6); settings: standard formulation 50:10:38.5:1.5
[4] = percentage of RNA entrapped in the LNP
[5] = Table 8, mice, intramuscular, 5 µg luciferase mRNA in 50 µl

SMILES	P.D.I. [1]	Particle size/ Ø (nm) [1] [nm]	Z Potential (± D.E.) [mV] [1] [mV]	Encaps. efficiency (%) [2, 4] [%]	encapsulation efficiency ([2]; Table 6, percentage of RNA entrapped in the LNP, LNP 50:10:38.5:1.5) [%]	Apparent pKa [3]	Encaps. efficiency [2] [%]	Total flux (p·s^-1) (mice; t = 0, fresh preparation)	Total flux (p·s^-1) (mice; t = 61 days, stored at 4 °C)	transfection efficiency (HEK293T cells; HEK293T cells, without addition of helper lipids)	toxicity (HEK293T cells; liposomes, in vitro)	transfection (luminescence) in vivo (Female BALB/c mice; Figure 2, intramuscular injection, LNP 50:10:38.5:1.5 encapsulating luciferase mRNA)	Total Flux (Female BALB/c mice; Table 6, in vivo after injection)	Total Flux (Female BALB/c mice; [5]) [p·s^-1]
CCCCCCCCCCCCCCCCOC(=O)CCSCCC(NC(=O)C(CCCCCC)CCCCCCCC)C(=O)NCCCn1ccnc1 (centres unmarked) [VC-LC-0263]	0.13	188.6	-17.30	60.70				1.19E+08	5.07E+07					
CCCCCCCC/C=C\CCCCCCCCC(=O)CC(CCSSCCCCCCCCCCCC)C(=O)NCCN1CCN(C)CC1 (centres unmarked) [VC-LC-0588]										about 95%	low toxicity	no transfection		
CCCCCCCCC(CCCCCCCC)OC(=O)C(CSCCC(=O)OCC(CC)CCCC)CC(=O)NCCCn1ccnc1 (centres unmarked) [VC-LC-0297]	0.18	193.3	-11.77	46.94		5.80	46.9							2.3E+07

Now from value to compound, other results behind:

P.D.I. [1]	Particle size/ Ø (nm) [1] [nm]	Z Potential (± D.E.) [mV] [1] [mV]	Encaps. efficiency (%) [2, 4] [%]	encapsulation efficiency ([2]; Table 6, percentage of RNA entrapped in the LNP, LNP 50:10:38.5:1.5) [%]	Apparent pKa [3]	Encaps. efficiency [2] [%]	SMILES	Total flux (p·s^-1) (mice; t = 0, fresh preparation)	Total flux (p·s^-1) (mice; t = 61 days, stored at 4 °C)	transfection efficiency (HEK293T cells; HEK293T cells, without addition of helper lipids)	toxicity (HEK293T cells; liposomes, in vitro)	transfection (luminescence) in vivo (Female BALB/c mice; Figure 2, intramuscular injection, LNP 50:10:38.5:1.5 encapsulating luciferase mRNA)	Total Flux (Female BALB/c mice; Table 6, in vivo after injection)	Total Flux (Female BALB/c mice; [5]) [p·s^-1]
0.16	173.7	-14.52	26.96	26.96	6.53		CCCCCCCCC(CCCCCCCC)OC(=O)C(CSCCC(=O)OCCCCCC)CC(=O)NCCCN1CCOCC1 (centres unmarked) [VC-LC-0550]						3,4·10^7 p·s^-1	
0.17	160.8	-3.40	72.06		7.07	72.1	CCCCCCCCC(CCCCCC)COC(=O)CCSCCC(NC(=O)C(CCCCCC)CCCCCCCC)C(=O)NCC1CCN(C)CC1 (centres unmarked) [VC-LC-0491]							2.37E+07
0.15	155.3	-11.66	29.06		6.51	29.06	CCCCCCCCOC(=O)CCSCC(CC(=O)NCCCN1CCOCC1)C(=O)OC(CCCCCCCC)CCCCCCCC (centres unmarked) [VC-LC-0551]							1.1E+08
0.13	152.6	-2.43	91.49		7.48	91.49	CCCCCCCCCCC(CCCCCCCC)C(=O)NC(CCSCCC(=O)OCC(CCCCCC)CCCCCCCC)C(=O)NCC1CCN(C)CC1 (centres unmarked) [VC-LC-0508]							1.7E+08
